Where a name gives a salt, the structure may show the parent alone. Read-outs that look alike come from different tables or passages of the source.
Key:
[1] = tested on: HCT116 cells; test: HCT116 cytotoxic activity assay (Alamar Blue, 72 h); conditions: Homo sapiens, HCT-116, read-out: IC50 in the HCT116 cytotoxic activity assay
Description: (§1) Human tumor cells, e.g., HCT116 cells, are seeded in a 96-well plate at 3.0×10^3 cells/well and grown in 100 μl of RPMI complete media (Invitrogen Corporation, Grand Island, N.Y.) containing 10% fetal bovine serum (Hyclone, Logan, Utah) and 10 mM HEPES and at 37° C. for 16 h in an incubator with 5% CO2. To each well, 50 μl of additional growth media containing 20 μM to 60 nM concentrations of compound with 0.2% DMSO is added. Cells are grown for another 72 h at 37° C. 20 μl of Alamar Blue (Trek Diagnostic Systems, Inc., Cleveland, Ohio) reagent is added to each well and incubated for 4 h at 37° C. Plates are read in a SpectraMax Gemini (Molecular Devices, CA) with 544 nm excitation and 590 nm emission wavelength. IC50 values are determined by linear regression analysis of log drug concentration versus percent inhibition.

[2] = tested on: HCT116 cells
Description: as §1

IC50 [2] [nM]	SMILES	IC50 [1] [nM]
	NCc1cc(Oc2ccc(Nc3cc(-c4ccccc4)nc(N)n3)cc2)ccn1 [Example 39, N^4-(4-{[2-(aminomethyl)pyridin-4-yl]oxy}phenyl)-6-phenylpyrimidine-2,4-diamine]	≤ 500
	COC[C@@H]1CCCN1C(=O)c1cc(Oc2ccc(Nc3cc(-c4ccccc4)nc(N)n3)cc2)ccn1 [Example 81, N4*-{4-[(2-{[(2S)-2-(methoxymethylpyrrolidin-1-yl]carbonyl}pyridin-4-yl)oxy]phenyl}-6-phenylpyrimidine-2,4-diamine trifluoroacetate]	> 2000
	Nc1nc(Nc2ccc(Oc3ccnc(C(=O)N4CC[C@@H](O)C4)c3)cc2)cc(-c2ccccc2)n1 [Example 82, (3R)-1-[(4-{4-[(2-amino-6-phenylpyrimidin-4-yl)amino]phenoxy}pyridin-2-yl)carbonyl] pyrrolidin-3-ol trifluoroacetate (salt)]	500 to 2000
	Cn1cnc(S(=O)(=O)NCc2cc(Oc3ccc(Nc4cc(-c5ccccc5)nc(N)n4)cc3)ccn2)c1 [Example 93, N-[(4-{4-[(2-amino-6-phenylpyrimidin-4-yl)amino]phenoxy}pyridin-2-yl)methyl]-1-methyl-1H-imidazole-4-sulfonamide trifluoroacetate]	> 2000
	CCS(=O)(=O)NCc1cc(Oc2ccc(Nc3cc(-c4ccccc4)nc(N)n3)cc2)ccn1 [Example 94, N-[(4-{4-[(2-amino-6-phenylpyrimidin-4-yl)amino]phenoxy}pyridin-2-yl)methyl]ethanesulfonamide trifluoroacetate]	≤ 500
	CC(C)S(=O)(=O)NCc1cc(Oc2ccc(Nc3cc(-c4ccccc4)nc(N)n3)cc2)ccn1 [Example 95, N-[(4-{4-[(2-amino-6-phenylpyrimidin-4-yl)amino]phenoxy}pyridin-2-yl)methyl]propane-2-sulfonamide trifluoroacetate]	≤ 500
	Nc1nc(Nc2ccc(Oc3ccnc(CNS(=O)(=O)c4ccccc4)c3)cc2)cc(-c2ccccc2)n1 [Example 96, N-[(4-{4-[(2-amino-6-phenylpyrimidin-4-yl)amino]phenoxy}pyridin-2-yl)methyl]benzenesulfonamide trifluoroacetate]	≤ 500
	COc1ccc(S(=O)(=O)NCc2cc(Oc3ccc(Nc4cc(-c5ccccc5)nc(N)n4)cc3)ccn2)cc1 [Example 97, N-[(4-{4-[(2-amino-6-phenylpyrimidin-4-yl)amino]phenoxy}pyridin-2-yl)methyl]-4-methoxybenzenesulfonamide trifluoroacetate]	≤ 500
	Nc1nc(Nc2ccc(Oc3ccnc(CNS(=O)(=O)c4ccc(F)cc4)c3)cc2)cc(-c2ccccc2)n1 [Example 98, N-[(4-{4-[(2-amino-6-phenylpyrimidin-4-yl)amino]phenoxy}pyridin-2-yl)methyl]-4-fluorobenzenesulfonamide trifluoroacetate]	≤ 500
	NC(=O)NCc1cc(Oc2ccc(Nc3cc(-c4ccccc4)nc(N)n3)cc2)ccn1 [Example 101, N-[(4-{4-[(2-amino-6-phenylpyrimidin-4-yl)amino]phenoxy}pyridin-2-yl)methyl]urea trifluoroacetate]	500 to 2000
	Nc1nc(Nc2ccc(Oc3ccnc(NCc4ccccc4)c3)cc2)cc(-c2ccccc2)n1 [Example 132, N4*-(4-{[2-(benzylamino)pyridin-4-yl]oxy}phenyl)-6-phenyl-pyrimidine-2,4-diamine trifluoroacetate]	500 to 2000
	NCC(=O)Nc1ccc(-c2cc(Nc3ccc(Oc4ccnc(C(F)(F)F)c4)cc3)nc(N)n2)cc1 [Example 151, N-(4-{2-amino-6-[(4-{[2-(trifluoromethyl)pyridin-4-yl]oxy}phe-nyl)amino]pyrimidin-4-yl}phenyl)glycinamide trifluoroacetate]	≤ 500
	NCCCC(=O)Nc1ccc(-c2cc(Nc3ccc(Oc4ccnc(C(F)(F)F)c4)cc3)nc(N)n2)cc1 [Example 152, 4-amino-N-(4-{2-amino-6-[(4-{[2-(trifluoromethyl)pyridin-4-yl]oxy}phe-nyl)amino]pyrimidin-4-yl}phenyl)butanamide trifluoroacetate]	500 to 2000
	COc1cc(-c2cc(Nc3ccc(Oc4ccnc(C#N)c4)cc3)nc(N)n2)ccc1N [Example 179, 4-(4-{[2-amino-6-(4-amino-3-methoxyphenyl)pyrimidin-4-yl]a-mino}phenoxy)pyridine-2-carbonitrile trifluoroacetate]	≤ 500
500 to 2000	N#CCc1ccc(-c2cc(Nc3cccc(Oc4ccnc(C(N)=O)c4)c3)nc(N)n2)cc1 [Example 294, 4-[3-({2-amino-6-[4-(cyanomethyl)phenyl]pyrimidin-4-yl}amino)phenoxy] pyridine-2-carboxamide]	
